Measured values reported in US9239334B2, “Fatty acid C16: 1N7-palmitoleate a lipokine and biomarker for metabolic status” (PRESIDENT AND FELLOWS OF HARVARD COLLEGE, priority 2008, dated 2016).

Key:
[1] = tested on: SCD-1, FAS and ELOVL6 expression in liver; test: Liver lipogenic gene expression after 6-hour lipid infusion; assay type: in vivo; details: 6-hour infusion, compared to vehicle-infused mice
From the text: FIG. 5A-5E reflects the regulation of SCD-1 promoter activity in vivo. […] PUF: polyunsaturated fatty acid response element. FIG. 5B is the regulation of WT and mutant SCD-1 promoter activities by fatty acids. AA: arachidonic acid. FIG. 5C is the regulation of wild-type and mutant SCD-1 promoter activities by plasma lipids. Plasma lipids extracted from WT or FABP^−/− (DK) mice were used to treat FAO cells Infected with WT or mutant SCD-1 promoter-carrying adenoviruses and luciferase assays performed as described in the Examples. FIG. 5D presents the in vivo regulation of wild-type and mutant SCD-1 promoter activities. Luciferase assays were performed on liver tissues of WT or DK mice injected with WT or mutant SCD-1 reporter carrying adenoviruses. FIG. 5E is liver gene expression in mice infused with vehicle, TG:palmitate or TG:palmitoleate. *, p<0.05. […] INTRALIPID® fatty acid lipid infusion solution with 2 mM triglycerides:palmitate or palmitoleate were prepared using a previously described protocol with modifications (Stein et al., 1997). Briefly, lipids were dissolved in a solvent containing 5% glycerol and 0.72% phosphocholine in 0.9% saline, heated at 80° C. for 10 min, and then sonicated 1 min four times. For TG:palmitoleate, the heating was omitted to avoid oxidization of the lipids. Lipids stay in suspension for a week, so to prevent clogging the preparations must be vortexed well before loading the syringe and tubing. Seven days before lipid infusion, mice were anesthetized and an indwelling catheter inserted in the left internal jugular vein, then the animals were left to recover the following days. After overnight fasting, lipids were infused at a rate of 500 μl/kg/min for six hours. At the end of the infusion, insulin (1 U/Kg) was injected into mice via the infusion tubing and tissues were collected for subsequent gene expression and immunoblotting analyses. To determine serum FFA level during lipid infusion, blood was collected from mouse tails at different time intervals and spun down to collect plasma. Serum FFAs were determined using a commercial kit (Wako Chem.). TG:palmitate and TG:palmitoleate are difficult to dissolve at a concentration that are compatible with the infusion rate of hyperinsulinemic-euglycemic clamp study and yet maintain efficient delivery of these lipids. Therefore fatty acid: palmitoleate was used to infuse mice for clamp study. Palmitoleate was dissolved in saline containing 2% BSA (vehicle) at 15 mM with repeated sonications and was infused through the tubing at a rate of 3.3 μl/min for two hours. A standard hyperinsulinemic-euglycernic clamp was then performed as previously described (Furuhashi et al., 2007). Vehicle or palmitoleate solution was used to dissolve tracer ^3H-glucose and so lipid was also infused at 3.3 μl/min throughout the 4-hour period of clamp study.

[2] = tested on: insulin receptor, IRS-1, IRS-2 and AKT phosphorylation in liver; test: Insulin signaling in liver of lipid-infused mice (immunoblotting); assay type: in vivo; details: TG lipid infusion, compared to vehicle controls
From the text: (§1) FIGS. 7A-7G show data on the regulation of insulin signaling and glucose metabolism by palmitoleate. FIG. 7A is the basal and insulin-stimulated phosphorylation of insulin receptor (IR), insulin receptor substrate-1 (IRS-1) and -2 (IRS-2) and AKT in liver of mice infused with vehicle (Veh), TG:palmitoleate (C16:1n7) or TG:palmitate (C16). Representative blots are shown and quantifications on the right are averaged results of three mice in each treatment group. […] Representative blots are shown and quantifications on the right are averaged results of three mice in each treatment group.
(§2) The left panel presents the insulin-stimulated phosphorylation of insulin receptor and AKT in liver of mice infused with vehicle or palmitoleate. […] Mice were infused with vehicle or palmitoleate at 3.3 μl/min for six hrs, and insulin (1 U/Kg) was injected through the infusing tubing. Three minutes after insulin injection, tissues were collected and immunoblotting analyses were performed.
(§3) The present invention also provides for the regulation of insulin action by increased circulating palmitoleate. To study whether palmitoleate regulates systemic metabolic responses, lipid infusions were administered in conscious mice. Lipid infusion has been used widely to investigate the relationship between plasma FFAs and insulin resistance, but almost all studies using this protocol utilized preparations of natural lipid products containing a variety of fatty acids. Kim et al., 114 J. Clin. Invest. 823-27 (2004); Kim et al., 277 J. Biol. Chem. 32915-22 (2002); Yu et al., 277 J. Biol. Chem. 50230-36 (2002). […]
(§4) Samples of 200 μl serum were collected using heparin-coated glass tubes and spun at 13,000 g in a microcentrifuge to separate the plasma. […] Tissue protein lysates was separated with SDS-PAGE gels and phosphorylated or total proteins were detected with the following antibodies: phospho AKT Serine 473, AKT, insulin receptor, phospho-tyrosine (Santa Cruz Biotech.); IRS-1 and IRS-2 (Upstate); phospho-GSK and GSK (Cell Signaling Tech.); phospho-insulin receptor from (Calbiocbem). […]

aP2 = target: T1, aP2 (Mus musculus, UniProt P04117); test: Lipogenic gene expression in adipose tissue of mice treated with aP2 inhibitor; assay type: in vivo; details: WT mice on HFD, oral gavage 40 mg/kg/day for two months
T1 construct: from tissue; host or cells: epididymal fat pads of mice on high-fat diet (in vivo oral dosing)
T1 sequence (P04117 1-132): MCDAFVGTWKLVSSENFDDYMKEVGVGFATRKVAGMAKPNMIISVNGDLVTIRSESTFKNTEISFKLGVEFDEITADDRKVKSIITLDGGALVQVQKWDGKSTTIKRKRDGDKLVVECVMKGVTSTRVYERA
Method: FIGS. 6A-6D present data related to the regulation of lipogenic genes in adipose and liver of WT and FABP^−/− mice. […] Gene expression patterns in epididymal fat pad were determined by quantitative real-time PCR. FIG. 6B is regulation of lipogenic gene promoter activities by FABPs in differentiated adipocytes. […] Gene expressions in epididymal fat pads from mice treated with vehicle or aP2 inhibitor were determined with quantitative real-time PCR. […] relates to the differential regulation of lipogenic gene expression in adipose and liver tissues. Levels of the mRNAs in liver and epididymal fat pad from mice fed with high-fat diet were determined with quantitative real-time PCR. ACC1, acetyl-CoA carboxylase1; FAS, fatty acid synthase; SCD-1, stearoyl-CoA desaturase; ELOVL6, fatty acid elongase 6; DGAT1, acyl-CoA:diacylglycerol acyltransferase 1. *, p<0.05.
To directly address this, adipogenic cell lines from FABP−/−mice were differentiated them into adipocytes (FIG. 19). […] This observation agrees with that observed in adipose tissue of FABP-deficient mice. This pattern was tested in vivo in an alternative experimental system where aP2 function in mice is blocked through an orally administrated synthetic inhibitor. […] Furuhashi et al., 2007. […]

SCD-1 promoter = test: SCD-1 promoter-driven luciferase reporter in FAO hepatoma cells; assay type: cell-based, murine; details: hepatocytes (FAO) treated with a single fatty acid, 300 μM
Method: This possibility was tested using several highly sensitive assays to probe the functional profile and activities of plasma lipids. SCD-1 was chosen as a target because it was determined previously that the suppression of hepatic SCD-1 activity is a major alteration in FABP-deficient mice under diet-induced or genetic obesity. Cao et al., 2006; Maeda et al., 2005. Hepatic SCD-1 expression is regulated by a variety of hormones and nutritional factors such as insulin, glucose, and polyunsaturated fatty acids (PUFAs). Ntambi & Miyazaki, 43 Prog. Lipid Res. 91-104 (2004). […] Chu et al., 26 Mol. Cell Biol. 6786-98 (2006); Ntambi, 40 J. Lipid Res. 1549-58 (1999). The 1.5 kb murine SCD-1 promoter was placed in front of a luciferase reporter and inserted into an adenovirus construct. FAO rat hepatoma cells infected with this adenovirus verified the responsiveness of this reporter to PUFA, consistent with previous observations (FIG. 15). Because this assay system was adapted to a microplate format, very small amounts of lipids were required for experimentation. This system allowed direct testing for the effects of lipids extracted from plasma of WT and FABP-deficient animals.
Lipids were extracted from whole plasma and applied to liver cells expressing the SCD-1 promoter reporter gene. […] To control for any difference in the amount of lipids extracted from plasma and to mimic the in vivo regulation of SCD-1 expression, mixtures of FFAs were generated with the same molar ratio detected in WT or FABP-deficient plasma lipids using the major fatty acids listed in FIG. 2C. […]
as §4

[3] = tested on: insulin receptor signaling in muscle tissue; test: Insulin signaling in muscle of lipid-infused mice (immunoblotting); assay type: in vivo; details: TG lipid infusion
From the text: as §1, §2, §3, §4

Row | Compound | SCD-1 expression in liver [1] | fatty acid elongase 6 (ELOVL6) expression in liver [1] | fatty acid synthase (FAS) expression in liver [1] | proximal insulin-signaling pathway in liver (insulin receptor, IRS-1, IRS-2, AKT) [2] | insulin receptor signaling in muscle [3] | further results
1 | CCCCCCCCCCCCCCCC(=O)OCC(COC(=O)CCCCCCCCCCCCCCC)OC(=O)CCCCCCCCCCCCCCC [TG-palmitate, reference compound] | increase | increase | increase | suppressed | – | –
2 | CCCCCC/C=C\CCCCCCCC(=O)OCC(COC(=O)CCCCCCC/C=C\CCCCCC)OC(=O)CCCCCCC/C=C\CCCCCC [TG-palmitoleate] | substantial decrease | substantial decrease | substantial decrease | strongly potentiated | – | –
3 | CCc1c(-c2ccccc2)c(-c2ccccc2)nn1-c1ccccc1-c1cccc(OCC(=O)O)c1 [aP2 inhibitor] | – | – | – | – | – | lipogenic gene expression in adipose tissues (aP2): increased
4 | CCCCC/C=C\C/C=C\C/C=C\C/C=C\CCCC(=O)O [arachidonic acid, reference compound] | – | – | – | – | – | SCD-1 promoter-driven reporter activity (SCD-1 promoter): suppressed
5 | CCCCCCCCCCCCCCCC(=O)O [palmitate, reference compound] | – | – | – | – | impaired | –
6 | C16:1n7-palmitoleate | – | – | – | – | enhanced | –
